Measurements as given in paper PMC10779143, “Collagen-like Osteoclast-Associated Receptor (OSCAR)-Binding Motifs Show a Co-Stimulatory Effect on Osteoclastogenesis in a Peptide Hydrogel System” (International Journal of Molecular Sciences, 2023).
Entries after “also recorded” stand apart in the source; their conditions may differ. Where a SMILES comes first, the peptide text is derived from it. [ ]: non-standard residue; d: D form. Hyp = O=C(O)[C@@H]1C[C@@H](O)CN1

Assays:
[1] = CD analysis of secondary structure (collagen triple helix) and refolding; assay type: physicochemical; conditions: CD Buffer pH 7.4; for Triple helical features (positive ellipticity band) at 70 °C: CD at 70 °C; for Secondary structure by CD: CD spectra 190-260 nm at 10 °C, 0.5 mg/mL peptides, 0.2 mg/mL OCol1; for Refolding of the triple helix after denaturation: cooling from 70 °C to 10 °C, approximately 30 min, 210 µM peptides, 12 µM OCol1
Protocol: Secondary structures of OP1_Hyp, OP1_Pro, and OCol1 were analysed by circular dichroism (CD) spectroscopy using a Jasco® J-810 spectropolarimeter (UCI, Irvine, CA, USA) equipped with a Peltier temperature controller. OP1_Hyp and OP1_Pro were resuspended up to a concentration of 0.5 mg/mL in a CD transparent buffer (10 mM K2HPO4, 10 mM KH2PO4, 150 mM KF, pH 7.4, CD Buffer) [15] and kept for 24 h at 4 °C to allow for the formation of the collagen triple helical structure. OCol1 was exchanged to CD Buffer using a PD 10 disposable desalting column (GE17-0851-01, Merck, Feltham, UK). Briefly, the column was equilibrated with five column volumes of CD Buffer before the addition of OCol1 to the storage buffer. After flow-through collection, 0.5 mL fractions were collected into 1.5 mL Eppendorf tubes. The OCol1 elution fractions were quickly analysed by CD, and the one with the highest concentration (0.2 mg/mL) was used. CD spectra were measured between 190 nm and 260 nm at 10 °C using a 1 mm path-length CD-matched quartz cuvette (Starna Scientific, Ilford, UK). Data were collected every 0.2 nm with a 1 nm bandwidth. Spectral baselines were corrected by subtracting the spectrum of CD Buffer (blank) collected under the same conditions. Additionally, the thermal stability of OP1_Hyp, OP1_Pro, and OCol1 was analysed. Thermal transition profiles were recorded between 10 °C and 60 °C (OP1_Hyp and OP1_Pro) or 70 °C (OCol1) at 222 nm with a data pitch of 0.2 °C, a bandwidth of 1 nm, a detector response time of 32 s, and a temperature slope of 1 °C/min. Samples were cooled back to 10 °C after the different transitions had been completed, and final spectra were recorded at that temperature. Ellipticity in millidegrees was converted to mean residue molar ellipticity Θ (degree cm^2 dmol^−1) by normalising for the number of residues on each peptide or protein [23].

[2] = molecular target: T1, recombinant human OSCAR-Fc chimera (Homo sapiens, UniProt Q8IYS5); assay: Surface plasmon resonance (SPR) analysis of the peptide-OSCAR interaction; assay type: binding; conditions: 25 °C; for Association/dissociation behaviour in sensorgrams: immobilised human OSCAR-Fc, pH 7.4
T1 construct: extracellular region of human OSCAR (Asp19-Asn229, NP_573399); purchased R&D Systems, Bio-Techne 9955-OS
T1 sequence (Q8IYS5 19-229 isoform Q8IYS5-2): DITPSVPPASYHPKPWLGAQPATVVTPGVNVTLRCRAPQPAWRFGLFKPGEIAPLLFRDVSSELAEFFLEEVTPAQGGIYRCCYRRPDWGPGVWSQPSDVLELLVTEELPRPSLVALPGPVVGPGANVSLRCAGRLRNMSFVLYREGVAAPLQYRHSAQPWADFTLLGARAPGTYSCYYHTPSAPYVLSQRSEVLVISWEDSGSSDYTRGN
Protocol: Surface plasmon resonance (SPR) was used to determine the binding affinity between OP1_Hyp or OP1_Pro and a recombinant human OSCAR-Fc chimera made from the extracellular region of human OSCAR (Asp19-Asn229, NP_573399) and the Fc domain from human IgG1 (Pro100-Lys330, P01857-1). A kinetic analysis was performed with immobilised OSCAR-Fc, OP1_Hyp, and OP1_Pro as analytes. A Langmuir 1:1 model was used to perform the kinetic analysis. This model is based on a simple interaction between ligand and analytes where a 1:1 molar complex is formed at equilibrium, i.e., A + B ⇄ AB. The kinetics of the reaction are determined by the association and dissociation rate constants (ka and kd, respectively), with an overall affinity constant (KD) given by KD = kd/ka.
SPR analyses were carried out on a Biacore™ T200 (Cytiva) using a Series S CM5 sensor chip with an assay running buffer of 10 mM PBS, 150 mM NaCl, 0.05% Tween20, pH 7.4. Reference and active flow cells were activated by injecting 70 μL of a 1:1 mixture of 0.2 M 1-ethyl-3-(3-dimethylaminopropyl)-carbodiimide (EDC) and 0.1 M N-hydroxysuccinimide (NHS) at 10 µL/min. Recombinant human OSCAR-Fc chimera (R&D Systems, Bio-Techne, Minneapolis, MN, USA, 9955-OS) was immobilised onto the active flow cell at 20 µg/mL in 10 mM sodium acetate pH 5.0 at 10 µL/min to 6880 response units (RU). Reference and active flow cells were blocked using 1 M ethanolamine, pH 8, at a flow rate of 10 µL/min. For kinetic and equilibrium binding analysis, OP1_Hyp and OP1_Pro peptides were flowed at 25 °C active and reference flow cells at 30 µL/min in assay running buffer at peptide concentrations of 5000—0 nM (OP1_Hyp) and 40,000—0 nM (OP1_Pro), using a dilution series. Surfaces were regenerated with a 10 s injection of 0.1 M glycine, pH 2.0. Data sets were analysed with the built-in BiaEvaluation software (version 4.1). The models used for analysis were the Langmuir 1:1 binding model and the steady-state analysis model. Data are presented as the mean and standard error of the mean (SEM) of triplicate runs.

Raw 264.7 cells [3] = assay: TRAP staining / osteoclast morphology of Raw 264.7 cells on peptide-coated tissue culture plastic; assay type: cell-based; conditions: for Osteoclast features / TRAP staining, 10 ng/mL hRANKL / Osteoclast features / TRAP staining, 100 ng/mL hRANKL / Differentiation without hRANKL (TRAP staining): 5 days on coated TCP; for Osteoclast features / TRAP staining, 10 ng/mL hRANKL: 10 ng/mL hRANKL (suboptimal); for Osteoclast features / TRAP staining, 100 ng/mL hRANKL: peptide effect masked by high hRANKL; for Differentiation without hRANKL (TRAP staining): no hRANKL added; for Overall effect on differentiation of Raw 264.7 cells on coated TCP: used as substrate on TCP
Protocol: (§1) Raw 264.7 cells were cultured and passaged as previously described. Cell adhesion to OP1_Hyp and OP1_Pro was assessed as shown by Barrow et al.. Briefly, 48-well plates were coated with 10 µg/mL of OSCAR-binding peptides overnight at 4 °C. The excess peptide was then removed by washing with PBS before adding 1% BSA to block non-specific binding sites for 1 h at 25 °C. Raw 264.7 cells were then resuspended at a concentration of 2 × 10^5 cells/mL and added to the well. Cells were cultured with different concentrations of human RANKL (hRANKL) (catalogue number: 310-01 from Peprotech, London, UK) (0–100 ng/mL) for up to 5 days to assess the contribution of the OSCAR-binding peptides OP1_Hyp and OP1_Pro to the differentiation of Raw 264.7 cells to mature OCs.
After 5 days of post-culture, Raw 264.7 cells were fixed in 4% PFA for 15 min at room temperature. TRAP was stained following the manufacturer’s protocol and evaluated by light microscopy (ThermoFisher, Swindon, UK). Multinucleated TRAP+ cells containing more than three nuclei were scored as mature OCs.

[4] = system: TRAP gene expression, Raw 264.7 cells; assay: qRT-PCR TRAP gene expression, Raw 264.7 cells on peptide-coated TCP; assay type: cell-based; conditions: for TRAP expression, 100 ng/mL hRANKL: 5 days vs day 1, relative to GAPDH; for TRAP expression, 100 ng/mL hRANKL / TRAP expression, 0-1 ng/mL hRANKL: n = 3; for TRAP expression, 10 ng/mL hRANKL: 5 days, n = 3, lower than with 100 ng/mL hRANKL; for TRAP expression, 10 ng/mL hRANKL / TRAP expression, 0-1 ng/mL hRANKL: relative to GAPDH; for TRAP expression, 0-1 ng/mL hRANKL: five days
Protocol: as §1
(§2) Gene expression of OC markers was evaluated as previously described. A StepOne™ Real-Time PCR System (Applied Biosystems, Warrington, UK) was used, with TaqMan probes and a universal PCR Master Mix (Life Technologies, Carlsbad, CA, USA, 4304437) in a total volume of 10 µL. The TaqMan probes for TRAP and OSCAR were Mm00475698_m1 and Mm01338227_g1, respectively. Data were analysed using the 2^−∆Ct method and normalised to the endogenous housekeeping gene GAPDH (Mm99999915_g1). Experiments were performed in triplicate.

[5] = system: OSCAR gene expression, Raw 264.7 cells; assay: qRT-PCR OSCAR gene expression, Raw 264.7 cells on peptide-coated TCP; assay type: cell-based; conditions: n = 3; for OSCAR expression, 100 ng/mL hRANKL: 5 days vs day 1, relative to GAPDH; for OSCAR expression, 10 ng/mL hRANKL: 5 days; for OSCAR expression, 10 ng/mL hRANKL / OSCAR expression, 0-1 ng/mL hRANKL: relative to GAPDH; for OSCAR expression, 0-1 ng/mL hRANKL: five days
Protocol: as §1, §2

Raw 264.7 cells [6] = assay: F-actin staining / osteoclast-like morphology and differentiation of Raw 264.7 cells on hydrogels; assay type: cell-based; conditions: 10 ng/mL hRANKL
[7] = system: TRAP gene expression, Raw 264.7 cells; assay: qRT-PCR TRAP gene expression, Raw 264.7 cells on hydrogels; assay type: cell-based; conditions: incorporated in FF/S/RGDH hydrogel, 10 ng/mL hRANKL
From the text: (§3) Fmoc-FF/S (Fmoc-diphenylalanine/serine, 1:1 molar ratio) and Fmoc-FF/S/RGD (1:0.5:0.5 molar ratio) peptides were provided by Biogelx Ltd., Edinburgh, UK. Hydroxyapatite (Hap) nanopowder (formula: Ca10(PO4)6(OH)2, with average particle size <200 nm) was purchased from Sigma-Aldrich (Dorset, UK, product code: 677418) and used as received. Hydrogels made up of Fmoc-based peptides and hydroxyapatite were fabricated as described previously. Hap-decorated Fmoc-FF/S/RGD hydrogels (FF/S/RGDH) were tested in combination with OP1_Hyp, OP1_Pro, and OCol1 to evaluate the contribution of OSCAR as a co-stimulatory pathway for OCP differentiation. […]
(§4) The day after hydrogel fabrication, 2 mL of Raw 264.7 cells (4 × 10^5 cells/mL) were seeded on top of FF/S/RGDH hydrogels containing the collagen-like OSCAR-binding peptides (OP1_Hyp, OP1_Pro) or recombinant collagen-like protein (OCol1). […] After 7 days of culture, cell viability on the peptide- or protein-modified FF/S/RGDH hydrogels was evaluated by using a LIVE/DEAD assay (ThermoFisher Scientific, Swindon, UK). […] After 30 min of incubation, cells were washed 3 times in PBS and imaged using a Nikon Eclipse 50i fluorescence microscope (Tokyo, Japan) (emission wavelengths: green channel for live cells: 515 nm; red channel for dead cells: 635 nm; excitation wavelength: 495 nm). […]
(§5) Gene expression of OC markers was evaluated as previously described. […]

[8] = system: OSCAR gene expression, Raw 264.7 cells; assay: qRT-PCR OSCAR gene expression, Raw 264.7 cells on hydrogels; assay type: cell-based; conditions: 10 ng/mL hRANKL, relative to GAPDH, n = 3
From the text: as §3, §4, §5

Retention of OSCAR binding on replacing Hyp with Pro ([2]; Hyp at position 3 replaced with Pro) | Molecule | Triple helical features (positive ellipticity band) at 70 °C [1] | Secondary structure by CD [1] | Refolding of the triple helix after denaturation [1] | Association/dissociation behaviour in sensorgrams [2] | Osteoclast features / TRAP staining, 10 ng/mL hRANKL (Raw 264.7 cells [3]) | Osteoclast features / TRAP staining, 100 ng/mL hRANKL (Raw 264.7 cells [3]) | Differentiation without hRANKL (TRAP staining) (Raw 264.7 cells [3]) | OC differentiation effect, lower suboptimal hRANKL, comparison of peptides (Raw 264.7 cells [3]; coated TCP, lower, suboptimal hRANKL) | Overall effect on differentiation of Raw 264.7 cells on coated TCP (Raw 264.7 cells [3]) | TRAP expression, 100 ng/mL hRANKL [4] | TRAP expression, 10 ng/mL hRANKL [4] | TRAP expression, 0-1 ng/mL hRANKL [4] | OSCAR expression, 100 ng/mL hRANKL [5] | OSCAR expression, 10 ng/mL hRANKL [5] | OSCAR expression, 0-1 ng/mL hRANKL [5] | Differentiation of Raw 264.7 cells to OCs on collagen-modified hydrogels (Raw 264.7 cells [6]; 7 days, incorporated in FF/S/RGDH hydrogel) | OC-like features, improvement vs unmodified hydrogels (Raw 264.7 cells [6]; hydrogels) | TRAP expression, day 3 to day 7 (comparison with literature) [7] | OSCAR expression change, day 3 to day 7 [8]
– | CC(=O)NCC(=O)N1CCC[C@H]1C(=O)N1C[C@H](O)C[C@H]1C(=O)NCC(=O)N1CCC[C@H]1C(=O)N1C[C@H](O)C[C@H]1C(=O)NCC(=O)N1CCC[C@H]1C(=O)N1C[C@H](O)C[C@H]1C(=O)NCC(=O)N[C@@H](C)C(=O)N1C[C@H](O)C[C@H]1C(=O)NCC(=O)N1CCC[C@H]1C(=O)N[C@@H](C)C(=O)NCC(=O)N[C@@H](Cc1ccccc1)C(=O)N[C@@H](C)C(=O)NCC(=O)N1CCC[C@H]1C(=O)N1C[C@H](O)C[C@H]1C(=O)NCC(=O)N1CCC[C@H]1C(=O)N1C[C@H](O)C[C@H]1C(=O)NCC(=O)N1CCC[C@H]1C(=O)N1C[C@H](O)C[C@H]1C(N)=O [OP1_Hyp] (Ac-GP[Hyp]GP[Hyp]GP[Hyp]GA[Hyp]GPAGFAGP[Hyp]GP[Hyp]GP[Hyp]-NH2) | disappeared from the CD spectra | a band of positive ellipticity with a maximum at ~220 nm and a deep band of negative ellipticity with a minimum at ~198 nm, previously associated with the typical conformation of the collagen triple helix | partial recovery of the collagen structure | a progressive binding phase to OSCAR with a slow release at all the concentrations tested | more cells showing OC-like features such as multinucleation; also recorded: still showed signs of osteoclastogenesis | typical OC features | not able to trigger any differentiation on their own | much more evident for OP1_Hyp compared to OP1_Pro | positive effect on differentiation | significantly higher after 5 days | TRAP expression was lower | either expressed at lower amounts or did not change significantly after five days of culture | significantly higher compared to day 1 | still significantly higher | either expressed at lower amounts or did not change significantly after five days of culture | the effect was more evident with OP1_Hyp; also recorded: positive effect on osteoclastogenesis | greater bioactivity (i.e., higher nuclei/cell distribution, increased cell diameter) | increased significantly between day 3 and day 7 of culture | increased significantly between day 3 and day 7 of culture
OSCAR binding is not abolished | Ac-GPOGPOGPOGAPGPAGFAGPOGPOGPO-NH2 [OP1_Pro] | disappeared from the CD spectra | a band of positive ellipticity with a maximum at ~220 nm and a deep band of negative ellipticity with a minimum at ~198 nm, previously associated with the typical conformation of the collagen triple helix | partial recovery of the collagen structure | both association and dissociation phases occurred very quickly | still showed signs of osteoclastogenesis | typical OC features | not able to trigger any differentiation on their own | – | positive effect on differentiation | significantly higher after 5 days | TRAP expression was lower | either expressed at lower amounts or did not change significantly after five days of culture | significantly higher compared to day 1 | still significantly higher | either expressed at lower amounts or did not change significantly after five days of culture | – | – | – | –
